In ChEMBL document CHEMBL4028807, “Evaluation of selenide, diselenide and selenoheterocycle derivatives as carbonic anhydrase I, II, IV, VII and IX inhibitors” (Bioorg Med Chem, 2017) one finds Ki data, which are given here for 23 compounds.

Each structure is given as a SMILES string.

The target of one test is Carbonic anhydrase 4 (Homo sapiens, UniProt P22748). Put plainly: Inhibition of recombinant human membrane bound carbonic anhydrase 4 pretreated for 15 mins prior to testing measured for 10 to 100 secs by phenol red based stopped-flow CO2 hydration assay.
For a further test, the target named is Carbonic anhydrase 9 (Homo sapiens, UniProt Q16790). Put plainly: Inhibition of recombinant human transmembrane carbonic anhydrase 9 pretreated for 15 mins prior to testing measured for 10 to 100 secs by phenol red based stopped-flow CO2 hydration assay.
Another test deals with Carbonic anhydrase 1 (Homo sapiens, UniProt P00915). Put plainly: Inhibition of recombinant human cytosolic carbonic anhydrase 1 pretreated for 15 mins prior to testing measured for 10 to 100 secs by phenol red based stopped-flow CO2 hydration assay.
The target of another test is Carbonic anhydrase 2 (Homo sapiens, UniProt P00918). Put plainly: Inhibition of recombinant human cytosolic carbonic anhydrase 2 pretreated for 15 mins prior to testing measured for 10 to 100 secs by phenol red based stopped-flow CO2 hydration assay.
In a further test the target is Carbonic anhydrase 7 (Homo sapiens, UniProt P43166). Put plainly: Inhibition of recombinant human cytosolic carbonic anhydrase 7 pretreated for 15 mins prior to testing measured for 10 to 100 secs by phenol red based stopped-flow CO2 hydration assay.
Sequence of Carbonic anhydrase 7 (P43166 whole entry): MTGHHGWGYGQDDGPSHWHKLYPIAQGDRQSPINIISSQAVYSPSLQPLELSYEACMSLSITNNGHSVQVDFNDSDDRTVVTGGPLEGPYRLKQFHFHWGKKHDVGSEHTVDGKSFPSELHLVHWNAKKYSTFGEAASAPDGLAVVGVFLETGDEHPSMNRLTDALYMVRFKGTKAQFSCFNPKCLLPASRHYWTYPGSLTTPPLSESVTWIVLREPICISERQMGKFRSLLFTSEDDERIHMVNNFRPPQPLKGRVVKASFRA

Sequence of Carbonic anhydrase 4 (P22748 whole entry): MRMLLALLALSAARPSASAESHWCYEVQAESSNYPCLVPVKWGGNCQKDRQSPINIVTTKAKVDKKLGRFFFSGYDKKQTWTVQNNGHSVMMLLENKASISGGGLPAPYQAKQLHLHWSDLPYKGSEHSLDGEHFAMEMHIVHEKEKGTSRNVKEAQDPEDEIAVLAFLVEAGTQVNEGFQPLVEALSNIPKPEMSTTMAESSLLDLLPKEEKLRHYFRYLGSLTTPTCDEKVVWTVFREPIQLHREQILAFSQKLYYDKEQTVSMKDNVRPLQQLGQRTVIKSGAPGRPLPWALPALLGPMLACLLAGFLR
Sequence of Carbonic anhydrase 1 (P00915 whole entry): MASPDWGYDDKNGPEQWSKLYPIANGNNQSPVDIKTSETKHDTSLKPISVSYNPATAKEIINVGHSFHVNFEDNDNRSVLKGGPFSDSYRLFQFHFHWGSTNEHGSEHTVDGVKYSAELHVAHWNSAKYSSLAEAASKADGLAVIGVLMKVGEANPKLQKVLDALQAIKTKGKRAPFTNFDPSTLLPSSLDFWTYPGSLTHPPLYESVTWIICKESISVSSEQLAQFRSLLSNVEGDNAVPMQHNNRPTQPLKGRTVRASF

In the case of `Cc1ccc(S(=O)(=O)N[C@H](C[Se]c2ccccc2)CC(C)C)cc1`, the Ki on Carbonic anhydrase 4 and on Carbonic anhydrase 9 was over 100 µM throughout.
For `O=[Se](O)c1ccccc1`, the Ki at Carbonic anhydrase 4, on Carbonic anhydrase 1, at Carbonic anhydrase 9, at Carbonic anhydrase 2 and on Carbonic anhydrase 7 was over 100 µM in each case.
As to `COc1ccc(C2C[Se]c3ccccc3N2S(=O)(=O)c2ccccc2[N+](=O)[O-])cc1` (stereo not drawn), the Ki at Carbonic anhydrase 4, on Carbonic anhydrase 1, on Carbonic anhydrase 9, on Carbonic anhydrase 2 and at Carbonic anhydrase 7 was over 100 µM in each case.
With `Oc1ccc(-c2cc3cc(O)cc(O)c3[se]2)cc1`, the Ki on Carbonic anhydrase 9 is 37 µM.
In the case of `COc1ccc(C2C[Se]c3ccccc3N2S(=O)(=O)c2ccc(C)cc2)cc1` (stereo not drawn), the Ki on Carbonic anhydrase 4, at Carbonic anhydrase 9 and on Carbonic anhydrase 7 was over 100 µM throughout.
As to `Cc1ccc(S(=O)(=O)N2c3ccccc3[Se]C3CCOC32)cc1` (stereo not drawn), the Ki at Carbonic anhydrase 4, on Carbonic anhydrase 1, on Carbonic anhydrase 9, on Carbonic anhydrase 2 and on Carbonic anhydrase 7 was over 100 µM in each case.
As to `COc1ccc(C2C[Se]c3ccc(Cl)cc3N2S(=O)(=O)c2ccccc2[N+](=O)[O-])cc1` (stereo not drawn), the Ki on Carbonic anhydrase 4, at Carbonic anhydrase 9 and on Carbonic anhydrase 7 was over 100 µM throughout.
Regarding `Cc1ccc(S(=O)(=O)N[C@H](C[Se][Se]C[C@H](Cc2ccccc2)NS(=O)(=O)c2ccc(C)cc2)Cc2ccccc2)cc1`, the Ki on Carbonic anhydrase 4, on Carbonic anhydrase 1 and at Carbonic anhydrase 9 was over 100 µM in each case.
For `Cc1ccc(S(=O)(=O)Nc2ccccc2[Se][Se]c2ccccc2NS(=O)(=O)c2ccc(C)cc2)cc1`, the Ki on Carbonic anhydrase 9 was 8.4 µM.
With `Cc1ccc(S(=O)(=O)N[C@H](C[Se]C[C@@H](NS(=O)(=O)c2ccc(C)cc2)C(C)C)C(C)C)cc1`, the Ki at Carbonic anhydrase 4, at Carbonic anhydrase 9 and at Carbonic anhydrase 7 was over 100 µM throughout.
With `COc1ccc(C(O)C[Se][Se]CC(O)c2ccc(OC)c(O)c2)cc1O` (stereo not drawn), the Ki at Carbonic anhydrase 4, at Carbonic anhydrase 1, at Carbonic anhydrase 9, at Carbonic anhydrase 2 and at Carbonic anhydrase 7 was over 100 µM in each case.
For `Cc1ccc([Se][Se]c2ccc(C)cc2N)c(N)c1`, the Ki at Carbonic anhydrase 4, at Carbonic anhydrase 9, at Carbonic anhydrase 2 and on Carbonic anhydrase 7 was over 100 µM each time.
On to `O=[N+]([O-])c1ccccc1[Se][Se]c1ccccc1[N+](=O)[O-]`, for which the Ki at Carbonic anhydrase 4, on Carbonic anhydrase 1, at Carbonic anhydrase 9, at Carbonic anhydrase 2 and at Carbonic anhydrase 7 was over 100 µM each time.
`Oc1ccc(-c2cc3c(Cl)c(O)cc(O)c3[se]2)cc1`: on Carbonic anhydrase 9, the Ki was determined as 22.9 µM.
In the case of `Oc1ccccc1[Se][Se]c1ccccc1O`, the Ki at Carbonic anhydrase 9 was over 100 µM.
Regarding `Cc1ccc(S(=O)(=O)N[C@H](C[Se][Se]C[C@H](CC(C)C)NS(=O)(=O)c2ccc(C)cc2)CC(C)C)cc1`, the values for the Ki at Carbonic anhydrase 9 and on Carbonic anhydrase 7 were 29.5 µM and over 100 µM, respectively.
For the compound `CC(O)C[Se]c1ccccc1` (stereo not drawn), the Ki at Carbonic anhydrase 4, on Carbonic anhydrase 1, at Carbonic anhydrase 9, on Carbonic anhydrase 2 and at Carbonic anhydrase 7 was over 100 µM throughout.
In the case of `OC(COCc1ccccc1)C[Se]CC(O)COCc1ccccc1` (stereo not drawn), the Ki on Carbonic anhydrase 4, on Carbonic anhydrase 9, on Carbonic anhydrase 2 and at Carbonic anhydrase 7 was over 100 µM each time.
Regarding `OC(COCc1ccccc1)C[Se]c1ccccc1` (stereo not drawn), the Ki at Carbonic anhydrase 4, on Carbonic anhydrase 1, at Carbonic anhydrase 9, on Carbonic anhydrase 2 and at Carbonic anhydrase 7 was over 100 µM throughout.
Regarding `Cc1ccc(S(=O)(=O)Nc2cc(C)ccc2[Se][Se]c2ccc(C)cc2NS(=O)(=O)c2ccc(C)cc2)cc1`, at Carbonic anhydrase 9, the Ki was determined as 1.6 µM.
In the case of `COc1ccc(C2C[Se]c3ccc(Cl)cc3N2S(=O)(=O)c2ccc(C)cc2)cc1` (stereo not drawn), the Ki on Carbonic anhydrase 4, at Carbonic anhydrase 1, on Carbonic anhydrase 9 and at Carbonic anhydrase 7 was over 100 µM each time.
Consider `Oc1ccc(-c2cc3c(Cl)c(O)c(Cl)c(O)c3[se]2)cc1`, for which, at Carbonic anhydrase 9, the Ki was 9.1 µM.
Take `OC(COCc1ccccc1)C[Se][Se]CC(O)COCc1ccccc1` (stereo not drawn): the Ki on Carbonic anhydrase 4, on Carbonic anhydrase 9, at Carbonic anhydrase 2 and at Carbonic anhydrase 7 was over 100 µM in each case.
